Results taken from patent US9187458B2, “Cyanoquinoline derivatives” (Tianjin Hemay Bio-Tech Co., LTD., priority 2010, dated 2015).
pEC50, pIC50: −log10 of the molar value.

Columns and labels:
Her2 kinase = target: T1, Her2 kinase (Homo sapiens, UniProt P04626); assay: Inhibition Activity Assay on Her2 Enzyme (ELISA, PGT substrate); format: biochemical; conditions: 8 min at 4° C., read-out: Inhibition Activity (EC50) on Her-2
T1 construct: purchased Cell Signaling Tech #7382
Procedure: Inhibition Activity Assay on Her2 Enzyme
1. Her2 kinase, Cell Signaling Tech, #7382, Lot. 2, reserved at −80° C.;
2. PBST: PBS+0.05% (v/v) Tween 20;
3. Confining liquid: 3% of BSA in PBS;
4. HEPEs buffer (2×): 50 mM HEPEs, 20 mM MgCl2, 0.1 mM MnCl2, 0.2 mM Na3VO4, adjusted to pH of 7.4 with NaOH;
5. PGT, Sigma, Cat#P0275): 2 mg/ml of stock solution was prepared by dissolving PBS, reserved at −20° C.
6. ATP: […] of stock solution was prepared by dissolving ddH2O, reserved at −20° C.;
7. Mice anti-phosphorylation tyrosine-HRP: Invitrogen-037720, 0.5 mg/ml, reserved at 4° C.;
8. TMB: Cell Signaling Tech, Cat #7004L;
9. DTT: 2.5 M of stock solution was prepared with ddH2O, reserved at −20° C. Before use, 2×HEPEs buffer was added in the solution to the final concentration of 1.25 mM.
1. 2 mg/ml of PGT was diluted with PBS to 0.2 mg/ml. 60 μl of the resulting solution was added in each well. The elisa plate was placed in a refrigerator at 4° C. and coated overnight;
2. The coating solution was discarded to stop the coating. The plate was washed four times with PBS, and then beaten to dryness;
3. The elisa plate was placed in a refrigerator at 4° C., drained out and stood for 3h.
4. […] of aqueous solution of each compound was diluted with ddH2O to a desirable concentration. Then, the solution was added in the corresponding elisa well by 25 μl/well;
5. 2 nM of ATP solution was diluted with ddH2O to 25 folds and then sufficiently mixed. The resulting solution was separately added in each elisa well by 25 μl per well (25 μl ddH2O was added in the negative control);
6. Her2 kinase was diluted with 2×TKB to 800 folds. The resulting solution was added in the elisa well by 50 μl per well. Then, the enzyme reaction began. Moreover, the elisa plate was immediately placed in a micro-oscillator. The reaction is carried out for 8 min at the temperature of 4° C.;
7. 2% of SDS was added in the elisa well to stop the reaction by adding 100 μl of SDS in each well. The solution was sufficiently mixed on the micro-oscillator to sufficiently mix for about 5 min;
8. The reaction solution was sucked out. The plate was washed four times with PBST. After the plate was beaten to dryness, 0.25 μg/ml of mice anti-phosphorylation tyrosine-HRP which was diluted with confining liquid was added in the plate by 100 μl per well, and then reacted for 30 min at the room temperature.
9. The antibody reaction solution was sucked out. The plate was washed six times with PBST. After the plate was beaten to dryness, TMB peroxidase substrate was added in the plate with 100 μl/well, and then reacted in the dark for 15 min at the room temperature;
10. 100 μl of 2N H2SO4 was added in the solution to stop the chromogenic reaction. After the bubbles were cleansed, the solution was measured in elisa at 450 nm.
OD values were converted in relative inhibition ratios according to following formula: Relative inhibition ratio=[1−(experiment values−NC mean values)/(PC mean values−NC mean values)]×100%

SK-OV-3 cells = assay: SK-OV-3 Cell Growth Inhibition Test (MTT Assay); format: cell-based; conditions: Homo sapiens, 72 h incubation
Procedure: SK-OV-3 Cell Growth Inhibition Test (MTT Assay)
Cell strains: SK-OV-3 (human ovarian cancer cell strains);
Culture medium: 90% McCoy's 5A+10% FBS;
1. A plate (10 cm) of cells in logarithmic growth phase normally cultured was collected;
2. The culture solution was sucked out. The plate was washed with 5 ml of PBS 1-2 times;
3. PBS was sucked out. 1.5 ml of 0.25% pancreatin was added to infiltrate the cells for 1 min;
4. The pancreatin was sucked out. The culture plate was placed in an incubator. Digestion was carried out for about 5 min at 37° C.;
5. 4.5 ml of complete culture solution was added to the culture plate to stop the digestion.T the cells were carefully scoured with micropipette (1 ml) to give a uniform cell suspension. The suspension was implanted into a 96-well cell culture disc by 4000 cells/100 μl per well. The culture plate was incubated overnight under 5% CO2 at 37° C. In day 2, 100 μl of culture solution comprising a compound was added in each well, and further incubated for 72 h under 5% CO2 at 37° C.
6. The culture solution was sucked out;
7. 100 μl of serum-free culture solution containing 0.5 mg/ml MTT was added in each well, and incubated for 3 h;
8. The culture solution was carefully sucked out;
9. 100 μl of DMSO was added in each well and vibrated to dissolve;
10. OD values were determined at 490 nM.
1. Calculation of Relative Inhibition Ratio The inhibition ratio of a compound on cell growth=(PC−n)/(PC−NC)×100%
IC50: Concentration of a compound where inhibition ratio was 50%. IC50 values were fitted with Origin7.5.

NCI-H460 cells = assay: NCI-H460 Cell Growth Inhibition Test (MTT Assay); format: cell-based; conditions: Homo sapiens, 72 h incubation
In short: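 Cells seeded at 2500 per well, left overnight, then exposed to compound for 72 h at 37 °C, 5% CO2. Viability by MTT (0.5 mg/ml, 3 h), DMSO-dissolved, OD 490 nm; inhibition ratio = (PC−n)/(PC−NC)×100%, IC50 from curve fit.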

T1 sequence (P04626 676-1255 limits assumed): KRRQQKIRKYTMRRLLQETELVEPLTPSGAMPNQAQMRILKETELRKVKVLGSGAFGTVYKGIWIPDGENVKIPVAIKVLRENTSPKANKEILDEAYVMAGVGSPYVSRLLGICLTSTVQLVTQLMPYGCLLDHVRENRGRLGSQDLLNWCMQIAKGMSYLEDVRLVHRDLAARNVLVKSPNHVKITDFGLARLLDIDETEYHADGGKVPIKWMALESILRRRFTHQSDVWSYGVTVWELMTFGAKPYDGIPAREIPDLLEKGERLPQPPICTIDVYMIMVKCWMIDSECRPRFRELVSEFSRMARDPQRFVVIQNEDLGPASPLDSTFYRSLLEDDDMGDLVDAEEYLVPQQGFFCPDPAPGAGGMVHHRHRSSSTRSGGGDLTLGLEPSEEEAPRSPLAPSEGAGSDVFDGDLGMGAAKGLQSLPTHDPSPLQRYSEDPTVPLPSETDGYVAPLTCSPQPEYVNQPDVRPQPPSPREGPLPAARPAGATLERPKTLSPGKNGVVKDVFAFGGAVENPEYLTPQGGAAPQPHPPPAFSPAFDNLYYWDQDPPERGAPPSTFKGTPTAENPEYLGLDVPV

Compound	pEC50 (Her2 kinase)	pIC50 (SK-OV-3 cells)	pIC50 (NCI-H460 cells)
C#Cc1cccc(Nc2c(C#N)cnc3cc(OC4CCOC4)c(NC(=O)/C=C/CN(C)C)cc23)c1 (centres unmarked) [Example 5, (E)-N-(3-CYANO-4-(3-ETHYNYLPHENYLAMINO)-7-(TETRAHYDROFURAN-3-YL-OXY)QUINOLIN-6-YL)-4-(DIMETHYLAMINO)-BUT-2-ENAMIDE]	7.02	6.71	5.92
CN(C)C/C=C/C(=O)Nc1cc2c(Nc3ccc(OCc4ccccc4C#N)c(Cl)c3)c(C#N)cnc2cc1OC1CCOC1 (centres unmarked) [Example 13, (E)-N-(4-(4-(2-CYANOBENZYLOXY)-3-CHLOROPHENYLAMINO)-3-CYANO-7-(TETRAHYDROFURAN-3-YL-OXY)QUINOLIN-6-YL)-4-(DIMETHYLAMINO)-BUT-2-ENAMIDE]	–	–	5.74
Cc1ccc(COc2ccc(Nc3c(C#N)cnc4cc(OC5CCOC5)c(NC(=O)/C=C/CN(C)C)cc34)cc2Cl)cc1 (centres unmarked) [Example 19, (E)-N-(4-(4-(4-METHYLBENZYLOXY)-3-CHLOROPHENYLAMINO)-3-CYANO-7-(TETRAHYDROFURAN-3-YL-OXY)QUINOLIN-6-YL)-4-(DIMETHYLAMINO)-BUT-2-ENAMIDE]	–	–	5.96
CN(C)C/C=C/C(=O)Nc1cc2c(Nc3ccc(OCc4cccc(C#N)c4)c(Cl)c3)c(C#N)cnc2cc1OC1CCOC1 (centres unmarked) [Example 15, (E)-N-(4-(4-(3-CYANOBENZYLOXY)-3-CHLOROPHENYLAMINO)-3-CYANO-7-(TETRAHYDROFURAN-3-YL-OXY)QUINOLIN-6-YL)-4-(DIMETHYLAMINO)-BUT-2-ENAMIDE]	–	–	5.85
CN(C)C/C=C/C(=O)Nc1cc2c(Nc3ccc(OCc4ccccn4)c(Cl)c3)c(C#N)cnc2cc1OC1CCOC1 (centres unmarked) [Example 21, (E)-N-(4-(3-CHLORO-4-(PYRIDIN-2-YL-METHOXY)PHENYLAMINO)-3-CYANO-7-(TETRAHYDROFURAN-3-YL-OXY)QUINOLIN-6-YL)-4-(DIMETHYLAMINO)-BUT-2-ENAMIDE]	6.63	–	5.57
CN(C)C/C=C/C(=O)Nc1cc2c(Nc3ccc(OCc4cccc(Cl)c4)c(Cl)c3)c(C#N)cnc2cc1OC1CCOC1 (centres unmarked) [Example 11, (E)-N-(4-(4-(3-CHLOROBENZYLOXY)-3-CHLOROPHENYLAMINO)-3-CYANO-7-(TETRAHYDROFURAN-3-YL-OXY)QUINOLIN-6-YL)-4-(DIMETHYLAMINO)-BUT-2-ENAMIDE]	–	–	5.82
C#Cc1cccc(Nc2c(C#N)cnc3cc(O[C@@H]4CCOC4)c(NC(=O)/C=C/CN(C)C)cc23)c1 [Example 141, (R,E)-N-(3-CYANO-4-(3-ETHYNYLPHENYLAMINO)-7-(TETRAHYDROFURAN-3-YL-OXY)QUINOLIN-6-YL)-4-(DIMETHYLAMINO)-BUT-2-ENAMIDE]	–	6.55	5.54
CN(C)C/C=C/C(=O)Nc1cc2c(Nc3ccc(F)c(Cl)c3)c(C#N)cnc2cc1O[C@H]1CCOC1 [Example 142, (S,E)-N-(4-(3-CHLORO-4-FLUOROPHENYLAMINO)-3-CYANO-7-(TETRAHYDROFURAN-3-YL-OXY)QUINOLIN-6-YL)-4-(DIMETHYLAMINO)-BUT-2-ENAMIDE]	–	6.26	5.98
CN(C)C/C=C/C(=O)Nc1cc2c(Nc3ccc(OCc4ccccc4)c(Cl)c3)c(C#N)cnc2cc1OC1CCOC1 (centres unmarked) [Example 12, (E)-N-(4-(4-(BENZYLOXY)-3-CHLOROPHENYLAMINO)-3-CYANO-7-(TETRAHYDROFURAN-3-YL-OXY)QUINOLIN-6-YL)-4-(DIMETHYLAMINO)-BUT-2-ENAMIDE]	–	–	6.01
C#Cc1cccc(Nc2c(C#N)cnc3cc(O[C@H]4CCOC4)c(NC(=O)/C=C/CN(C)C)cc23)c1 [Example 140, (S,E)-N-(3-CYANO-4-(3-ETHYNYLPHENYLAMINO)-7-(TETRAHYDROFURAN-3-YL-OXY)QUINOLIN-6-YL)-4-(DIMETHYLAMINO)-BUT-2-ENAMIDE]	6.96	6.54	5.96
Cc1ccccc1COc1ccc(Nc2c(C#N)cnc3cc(OC4CCOC4)c(NC(=O)/C=C/CN(C)C)cc23)cc1Cl (centres unmarked) [Example 17, (E)-N-(4-(4-(2-METHYLBENZYLOXY)-3-CHLOROPHENYLAMINO)-3-CYANO-7-(TETRAHYDROFURAN-3-YL-OXY)QUINOLIN-6-YL)-4-(DIMETHYLAMINO)-BUT-2-ENAMIDE]	–	–	5.82
CN(C)C/C=C/C(=O)Nc1cc2c(Nc3ccc(OCc4ccccc4F)c(Cl)c3)c(C#N)cnc2cc1OC1CCOC1 (centres unmarked) [Example 8, (E)-N-(4-(4-(2-FLUOROBENZYLOXY)-3-CHLOROPHENYLAMINO)-3-CYANO-7-(TETRAHYDROFURAN-3-YL-OXY)QUINOLIN-6-YL)-4-(DIMETHYLAMINO)-BUT-2-ENAMIDE]	–	–	5.92
CN(C)C/C=C/C(=O)Nc1cc2c(Nc3ccc(OCc4ccccn4)c(Cl)c3)c(C#N)cnc2cc1O[C@@H]1CCOC1 [Example 139, (R,E)-N-(4-(3-CHLORO-4-(PYRIDIN-2-YL-METHOXY)PHENYLAMINO)-3-CYANO-7-(TETRAHYDROFURAN-3-YL-OXY)QUINOLIN-6-YL)-4-(DIMETHYLAMINO)-BUT-2-ENAMIDE]	–	6.43	–
CN(C)C/C=C/C(=O)Nc1cc2c(Nc3ccc(OCc4ccccn4)c(Cl)c3)c(C#N)cnc2cc1O[C@H]1CCOC1 [Example 138, (S,E)-N-(4-(3-CHLORO-4-(PYRIDIN-2-YL-METHOXY)PHENYLAMINO)-3-CYANO-7-(TETRAHYDROFURAN-3-YL-OXY)QUINOLIN-6-YL)-4-(DIMETHYLAMINO)-BUT-2-ENAMIDE]	6.61	6.34	5.66
CN(C)C/C=C/C(=O)Nc1cc2c(Nc3cccc(Br)c3)c(C#N)cnc2cc1OC1CCOC1 (centres unmarked) [Example 7, (E)-N-(4-(3-BROMOPHENYLAMINO)-3-CYANO-7-(TETRAHYDROFURAN-3-YL-OXY)QUINOLIN-6-YL)-4-(DIMETHYLAMINO)-BUT-2-ENAMIDE]	–	–	6.03
CN(C)C/C=C/C(=O)Nc1cc2c(Nc3ccc(OCc4ccccc4Cl)c(Cl)c3)c(C#N)cnc2cc1OC1CCOC1 (centres unmarked) [Example 10, (E)-N-(4-(4-(2-CHLOROBENZYLOXY)-3-CHLOROPHENYLAMINO)-3-CYANO-7-(TETRAHYDROFURAN-3-YL-OXY)QUINOLIN-6-YL)-4-(DIMETHYLAMINO)-BUT-2-ENAMIDE]	–	–	5.77
CN(C)C/C=C/C(=O)Nc1cc2c(Nc3ccc(OCc4ccc(Cl)cc4)c(Cl)c3)c(C#N)cnc2cc1OC1CCOC1 (centres unmarked) [Example 16, (E)-N-(4-(4-(4-CHLOROBENZYLOXY)-3-CHLOROPHENYLAMINO)-3-CYANO-7-(TETRAHYDROFURAN-3-YL-OXY)QUINOLIN-6-YL)-4-(DIMETHYLAMINO)-BUT-2-ENAMIDE]	–	–	5.96
CN(C)C/C=C/C(=O)Nc1cc2c(Nc3ccc(OCc4cccc(F)c4)c(Cl)c3)c(C#N)cnc2cc1OC1CCOC1 (centres unmarked) [Example 9, (E)-N-(4-(4-(3-FLUOROBENZYLOXY)-3-CHLOROPHENYLAMINO)-3-CYANO-7-(TETRAHYDROFURAN-3-YL-OXY)QUINOLIN-6-YL)-4-(DIMETHYLAMINO)-BUT-2-ENAMIDE]	6.66	6.33	5.77
